Data as given in the supplement of paper PMC10331698.
± gives the standard deviation of the averaged measurements.

Assays:
Assay in all cases: level (log10 ratio to DMSO vehicle control); higher = higher biomarker level / cell amount than vehicle control
Details in all cases: in DMSO
[1] = compound: C=C(C)C(=O)OCCC(F)(F)C(F)(F)C(F)(F)C(F)(F)C(F)(C(F)(F)F)C(F)(F)F [(Perfluoro-5-methylhexyl)ethyl 2-methylprop-2-enoate]
Protocol: (§1)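 BioMAP Diversity Plus panel of 12 human primary cell co-culture systems (3C, 4H, LPS, SAg, BT, BF4T, BE3C, CASM3C, HDF3CGF, KF3CT, MyoF, Mphg). Compounds were added 1 h before stimulation and left for 24 h (MyoF 48 h; BT 72 h for soluble read-outs or 6 d for IgG). Biomarkers were read by ELISA, cytotoxicity by SRB, PBMC viability and proliferation by Alamar Blue. Each well value was divided by the mean of 8 DMSO control wells on the same plate and log10 transformed; duplicate blinded samples were tested at 4 concentrations.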

[2] = compound: C=CC(=O)OCC(F)(F)C(F)(F)C(F)(F)C(F)(F)C(F)(F)C(F)(F)C(F)(F)F [1H,1H-Perfluorooctyl acrylate]
Protocol: as §1

Heptafluorobutyramide = compound: NC(=O)C(F)(F)C(F)(F)C(F)(F)F [Heptafluorobutyramide]
Protocol: as §1

Pentafluoropropionamide = compound: NC(=O)C(F)(F)C(F)(F)F [Pentafluoropropionamide]
Protocol: as §1

Perfluorodecanoic acid = compound: O=C(O)C(F)(F)C(F)(F)C(F)(F)C(F)(F)C(F)(F)C(F)(F)C(F)(F)C(F)(F)C(F)(F)F [Perfluorodecanoic acid]
Protocol: as §1

Perfluoroheptanoic acid = compound: O=C(O)C(F)(F)C(F)(F)C(F)(F)C(F)(F)C(F)(F)C(F)(F)F [Perfluoroheptanoic acid]
Protocol: as §1

[3] = compound: O=C(O)C(F)(F)OC(F)(F)C(F)(F)OC(F)(F)F [Perfluoro-3,6-dioxaheptanoic acid]
Protocol: as §1

Row | Test System | level (log10) ([1]; 6700 nM) | level (log10) ([1]; 20000 nM) | level (log10) ([2]; 6700 nM) | level (log10) ([2]; 20000 nM) | level (log10) ([2]; 60000 nM) | level (log10) (Heptafluorobutyramide; 6700 nM) | level (log10) (Heptafluorobutyramide; 20000 nM) | level (log10) (Heptafluorobutyramide; 60000 nM) | level (log10) (Pentafluoropropionamide; 6700 nM) | level (log10) (Pentafluoropropionamide; 20000 nM) | level (log10) (Pentafluoropropionamide; 60000 nM) | level (log10) (Perfluorodecanoic acid; 6700 nM) | level (log10) (Perfluorodecanoic acid; 20000 nM) | level (log10) (Perfluoroheptanoic acid; 6700 nM) | level (log10) (Perfluoroheptanoic acid; 20000 nM) | level (log10) (Perfluoroheptanoic acid; 60000 nM) | level (log10) ([3]; 6700 nM) | level (log10) ([3]; 20000 nM) | level (log10) ([3]; 60000 nM)
1 | BE3C:PAI-I | 0.007 ± 0.03 | 0.0205 ± 0.019 | -0.0295 ± 0.018 | -0.0285 ± 0.028 | -0.028 ± 0.03 | -0.0065 ± 0.00071 | -0.0025 ± 0.00071 | -0.0115 ± 0.015 | 0.002 ± 0.0057 | -0.009 ± 0.03 | -0.016 ± 0.0028 | -0.0475 ± 0.013 | -0.4 ± 0.047 | 0.007 ± 0.0028 | 0.027 ± 0.0057 | 0.042 ± 0.021 | -0.037 ± 0.055 | 0.0125 ± 0.053 | 0.0055 ± 0.018
2 | KF3CT:CXCL9/MIG | 0.018 ± 0.014 | 0.0215 ± 0.023 | 0.005 ± 0.0042 | -0.0035 ± 0.0035 | 0.008 ± 0.0099 | 0.0065 ± 0.0021 | 0.0005 ± 0.0078 | 0.0155 ± 0.0064 | 0.0055 ± 0.013 | -0.0015 ± 0.0035 | -0.0085 ± 0.012 | 0.0065 ± 0.0078 | -0.0185 ± 0.0035 | -0.0085 ± 0.005 | -0.0015 ± 0.0035 | 0.011 ± 0.013 | -0.022 ± 0.0071 | 0.0065 ± 0.013 | -0.0035 ± 0.019
3 | HDF3CGF:CD54/ICAM-1 | 0.0005 ± 0.016 | -0.0045 ± 0.026 | -0.015 ± 0.0028 | -0.037 ± 0.0042 | -0.0545 ± 0.013 | -0.0045 ± 0.021 | 0.0035 ± 0.0092 | -0.001 ± 0.0099 | -0.01 ± 0.052 | 0.017 ± 0.024 | -0.0025 ± 0.0064 | -0.0485 ± 0.0092 | -0.071 | 0.004 ± 0.02 | -0.0145 ± 0.005 | -0.0255 ± 0.018 | 0.002 ± 0.0014 | -0.003 ± 0.0028 | -0.008 ± 0.014
4 | 3C:CCL2/MCP-1 | -0.0145 ± 0.025 | 0.006 ± 0.044 | -0.0085 ± 0.00071 | -0.009 ± 0.023 | 0.017 ± 0.028 | -0.011 ± 0.0057 | -0.0125 ± 0.0064 | 0.0065 ± 0.03 | 0.006 ± 0.018 | -0.007 ± 0.0099 | 0.0275 ± 0.00071 | 0.0065 ± 0.013 | -0.004 ± 0.0028 | 0.0015 ± 0.015 | -0.009 ± 0.013 | 0.032 ± 0.045 | -0.023 ± 0.044 | -0.015 ± 0.013 | -0.023 ± 0.021
5 | MyoF:CD106/VCAM-1 | 0.0095 ± 0.0092 | -0.013 ± 0.0028 | -0.011 ± 0.0042 | -0.0095 ± 0.0035 | -0.024 ± 0.0042 | -0.0165 ± 0.0064 | -0.017 ± 0.028 | -0.0145 ± 0.018 | -0.013 ± 0.017 | 0.006 ± 0.028 | -0.0075 ± 0.0021 | -0.019 ± 0.0071 | -0.084 ± 0.02 | -0.013 ± 0.0071 | -0.004 ± 0.016 | -0.0125 ± 0.015 | 0.001 ± 0.048 | -0.0175 ± 0.028 | -0.021 ± 0.051
6 | CASM3C:CD141/Thrombomodulin | -0.0185 ± 0.069 | 0.0165 ± 0.098 | -0.002 ± 0.0028 | 0.0035 ± 0.011 | 0.002 ± 0.017 | 0.017 ± 0.033 | 0.0065 ± 0.033 | -0.016 ± 0.041 | -0.023 ± 0.034 | -0.0315 ± 0.011 | -0.0555 ± 0.015 | -0.015 ± 0.031 | -0.0125 ± 0.029 | -0.0085 ± 0.025 | 0.0065 ± 0.0064 | 0.011 ± 0.033 | 0.032 ± 0.0085 | 0.019 ± 0.03 | 0.0295 ± 0.013
7 | CASM3C:CCL2/MCP-1 | 0.002 ± 0.023 | 0.0105 ± 0.005 | -0.0035 ± 0.0078 | -0.0095 ± 0.0035 | -0.004 ± 0.0071 | -0.004 ± 0.0057 | -0.0145 ± 0.0021 | 0.015 ± 0.037 | -0.003 ± 0.021 | -0.01 ± 0.0014 | 0.0075 ± 0.013 | 0.006 ± 0.02 | 0 ± 0.0042 | -0.0115 ± 0.015 | -0.013 ± 0.011 | 0.032 ± 0.044 | -0.0445 ± 0.09 | -0.0325 ± 0.067 | -0.039 ± 0.095
8 | lMphg:sIL-10 | 0.0215 ± 0.029 | -0.0195 ± 0.12 | 0.018 ± 0.02 | -0.023 ± 0.05 | -0.0565 ± 0.042 | 0.002 ± 0.05 | -0.0445 ± 0.071 | -0.011 ± 0.058 | -0.0095 ± 0.044 | -0.01 ± 0.028 | -0.0635 ± 0.12 | -0.018 ± 0.055 | -0.036 ± 0.028 | -0.017 ± 0.018 | 0.007 ± 0.027 | -0.0945 ± 0.032 | -0.0215 ± 0.0035 | 0.0045 ± 0.012 | -0.108 ± 0.044
9 | CASM3C:IL-6 | -0.035 ± 0.0042 | 0.0345 ± 0.028 | -0.0135 ± 0.029 | -0.027 ± 0.048 | -0.0125 ± 0.03 | -0.0275 ± 0.033 | -0.0105 ± 0.012 | 0.013 ± 0.042 | -0.021 ± 0.017 | -0.025 ± 0.0028 | -0.003 ± 0.041 | -0.035 ± 0.037 | -0.0375 ± 0.039 | -0.0135 ± 0.0078 | -0.0205 ± 0.021 | 0.008 ± 0.085 | -0.01 ± 0.044 | -0.0255 ± 0.0035 | -0.017 ± 0.02
10 | CASM3C:HLA-DR | -0.0175 ± 0.019 | -0.01 ± 0.0085 | 0.0075 ± 0.00071 | 0.002 ± 0.018 | 0.0045 ± 0.013 | 0.003 ± 0.024 | -0.0025 ± 0.0021 | -0.012 ± 0.038 | -0.005 ± 0.0042 | 0.0045 ± 0.0092 | -0.001 ± 0.018 | 0 | 0.006 ± 0.014 | -0.009 ± 0.0085 | -0.0315 ± 0.005 | -0.004 ± 0.052 | -0.0355 ± 0.069 | -0.0385 ± 0.074 | -0.047 ± 0.057
